Patent US20230085307A1, “PYRIDAZINONE COMPOUND AND HERBICIDE” (NISSAN CHEMICAL CORPORATION, priority 2019, published 2023)

Assays:
[1] = system: southern crabgrass; assay: Test Example 4: herbicidal effect by soil treatment (Table 19, symbol F); type: in vivo, southern crabgrass (Digitaria ciliaris)
Summary of the method: (§1)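 Scoring uses the grading scale of an earlier test, three weeks post-application. Treatment consists of spraying a diluted emulsion formulation across the surface of sterilized diluvial soil in which seeds are buried near 1.5 cm deep; boxes are kept in a greenhouse between 25° C. and 30° C.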

[2] = system: barnyard grass; assay: Test Example 4: herbicidal effect by soil treatment (Table 19, symbol H); type: in vivo, barnyard grass (Echinochloa crus-galli)
Summary of the method: as §1

[3] = system: velvetleaf; assay: Test Example 4: herbicidal effect by soil treatment (Table 19, symbol M); type: in vivo, velvetleaf (Abutilon theophrasti)
Summary of the method: as §1

[4] = system: green foxtail; assay: Test Example 5: herbicidal effect by foliage application, plastic box (Table 20, symbol G); type: in vivo, green foxtail (Setaria viridis)
Summary of the method: (§2)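 Post-emergence foliar test in sterilized diluvial soil. Compound applied as water-diluted emulsion at a predetermined rate to 14-day-old plants; evaluation at three weeks.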

[5] = system: windgrass; assay: Test Example 5: herbicidal effect by foliage application, plastic box (Table 20, symbol L); type: in vivo, windgrass (Apera spica-venti)
Summary of the method: as §2

[6] = system: Chinese sprangletop; assay: Test Example 3: herbicidal effect by foliage application, Wagner pot (Table 18, symbol D); type: in vivo, chinese sprangletop (Leptochloa chinensis); details: 320 g/ha
Summary of the method: (§3)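 Plants were sown in alluvial soil held under 0.1–0.5 cm standing water and grown 14 days in a greenhouse at 25–30 °C. An emulsifiable formulation, water-diluted to the set dose, was then sprayed onto the foliage, and effects were scored three weeks later using previously defined criteria.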

[7] = system: Italian ryegrass; assay: Test Example 4: herbicidal effect by soil treatment (Table 19, symbol K); type: in vivo, Italian ryegrass (Lolium multiflorum)
Summary of the method: as §1

[8] = system: southern crabgrass; assay: Test Example 5: herbicidal effect by foliage application, plastic box (Table 20, symbol F); type: in vivo, southern crabgrass (Digitaria ciliaris)
Summary of the method: as §2

[9] = system: lambsquarters; assay: Test Example 4: herbicidal effect by soil treatment (Table 19, symbol O); type: in vivo, lambsquarters (Chenopodium album)
Summary of the method: as §1

[10] = system: rice flat sedge; assay: Test Example 3: herbicidal effect by foliage application, Wagner pot (Table 18, symbol E); type: in vivo, rice flat sedge (Cyperus iria); details: 320 g/ha
Summary of the method: as §3

[11] = system: green foxtail; assay: Test Example 4: herbicidal effect by soil treatment (Table 19, symbol G); type: in vivo, green foxtail (Setaria viridis)
Summary of the method: as §1

[12] = system: persian speedwell; assay: Test Example 5: herbicidal effect by foliage application, plastic box (Table 20, symbol R); type: in vivo, Persian speedwell (Veronica persica)
Summary of the method: as §2

[13] = system: blackgrass; assay: Test Example 4: herbicidal effect by soil treatment (Table 19, symbol J); type: in vivo, blackgrass (Alopecurus myosuroides)
Summary of the method: as §1

[14] = system: blackgrass; assay: Test Example 5: herbicidal effect by foliage application, plastic box (Table 20, symbol J); type: in vivo, blackgrass (Alopecurus myosuroides)
Summary of the method: as §2

[15] = system: Italian ryegrass; assay: Test Example 5: herbicidal effect by foliage application, plastic box (Table 20, symbol K); type: in vivo, Italian ryegrass (Lolium multiflorum)
Summary of the method: as §2

[16] = system: chickweed; assay: Test Example 4: herbicidal effect by soil treatment (Table 19, symbol P); type: in vivo, common chickweed (Stellaria media)
Summary of the method: as §1

[17] = system: velvetleaf; assay: Test Example 5: herbicidal effect by foliage application, plastic box (Table 20, symbol M); type: in vivo, velvetleaf (Abutilon theophrasti)
Summary of the method: as §2

[18] = system: wild oat; assay: Test Example 4: herbicidal effect by soil treatment (Table 19, symbol I); type: in vivo, wild oat (Avena fatua)
Summary of the method: as §1

[19] = system: chickweed; assay: Test Example 5: herbicidal effect by foliage application, plastic box (Table 20, symbol P); type: in vivo, common chickweed (Stellaria media)
Summary of the method: as §2

[20] = system: barnyard grass; assay: Test Example 5: herbicidal effect by foliage application, plastic box (Table 20, symbol H); type: in vivo, barnyard grass (Echinochloa crus-galli)
Summary of the method: as §2

[21] = system: wild oat; assay: Test Example 5: herbicidal effect by foliage application, plastic box (Table 20, symbol I); type: in vivo, wild oat (Avena fatua)
Summary of the method: as §2

[22] = system: persian speedwell; assay: Test Example 4: herbicidal effect by soil treatment (Table 19, symbol R); type: in vivo, Persian speedwell (Veronica persica)
Summary of the method: as §1

[23] = system: lambsquarters; assay: Test Example 5: herbicidal effect by foliage application, plastic box (Table 20, symbol O); type: in vivo, lambsquarters (Chenopodium album)
Summary of the method: as §2

[24] = system: redroot pigweed; assay: Test Example 4: herbicidal effect by soil treatment (Table 19, symbol N); type: in vivo, redroot pigweed (Amaranthus retroflexus)
Summary of the method: as §1

[25] = system: redroot pigweed; assay: Test Example 5: herbicidal effect by foliage application, plastic box (Table 20, symbol N); type: in vivo, redroot pigweed (Amaranthus retroflexus)
Summary of the method: as §2

[26] = system: barnyard grass; assay: Test Example 3: herbicidal effect by foliage application, Wagner pot (Table 18, symbol H); type: in vivo, barnyard grass (Echinochloa crus-galli); details: 320 g/ha
Summary of the method: as §3

[27] = foliage application, AAH 320 g/ha, three weeks after application
[28] = amount of applied herbicide 320 g/ha
[29] = 320 g/ha, foliage application after 14-day growth, evaluated three weeks after application

COc1ccc(Cl)cc1-c1sc2ccccc2c1-c1c(O)c(OC)nn(C)c1=O [1-178]
F: southern crabgrass, herbicidal effect rating ([1]; AAH 320 g/ha): 0 (Herbicidal rate of 5% or less (almost no effect)) | H: barnyard grass, herbicidal effect rating ([2]; AAH 320 g/ha): 0 (Herbicidal rate of 5% or less (almost no effect)) | M: velvetleaf, herbicidal effect rating ([3]; AAH 320 g/ha): 0 (Herbicidal rate of 5% or less (almost no effect)) | G: green foxtail, herbicidal effect [4, 27]: 4 (Herbicidal rate of 70% or more and less than 90%) | L: windgrass, herbicidal effect [5, 27]: 4 (Herbicidal rate of 70% or more and less than 90%) | herbicidal effect on D (Chinese sprangletop), rating 0-5 [6]: 0 (Herbicidal rate of 5% or less (almost no effect)) | K: Italian ryegrass, herbicidal effect rating ([7]; AAH 320 g/ha): 0 (Herbicidal rate of 5% or less (almost no effect)) | F: southern crabgrass, herbicidal effect [8, 27]: 3 (Herbicidal rate of 40% or more and less than 70%) | O: lambsquarters, herbicidal effect rating ([9]; AAH 320 g/ha): 0 (Herbicidal rate of 5% or less (almost no effect)) | herbicidal effect on E (rice flat sedge), rating 0-5 [10]: 5 (Herbicidal rate of 90% or more (almost completely withered)) | G: green foxtail, herbicidal effect rating ([11]; AAH 320 g/ha): 0 (Herbicidal rate of 5% or less (almost no effect)) | R: persian speedwell, herbicidal effect [12, 27]: 4 (Herbicidal rate of 70% or more and less than 90%) | J: blackgrass, herbicidal effect rating ([13]; AAH 320 g/ha): 1 (Herbicidal rate of 5% or more and less than 20%) | J: blackgrass, herbicidal effect [14, 27]: 1 (Herbicidal rate of 5% or more and less than 20%) | K: Italian ryegrass, herbicidal effect [15, 27]: 0 (Herbicidal rate of 5% or less (almost no effect)) | P: chickweed, herbicidal effect rating ([16]; AAH 320 g/ha): 4 (Herbicidal rate of 70% or more and less than 90%) | M: velvetleaf, herbicidal effect [17, 27]: 3 (Herbicidal rate of 40% or more and less than 70%) | I: wild oat, herbicidal effect rating ([18]; AAH 320 g/ha): 0 (Herbicidal rate of 5% or less (almost no effect)) | P: chickweed, herbicidal effect [19, 27]: 5 (Herbicidal rate of 90% or more (almost completely withered)) | H: barnyard grass, herbicidal effect [20, 27]: 4 (Herbicidal rate of 70% or more and less than 90%) | I: wild oat, herbicidal effect [21, 27]: 4 (Herbicidal rate of 70% or more and less than 90%) | R: persian speedwell, herbicidal effect rating ([22]; AAH 320 g/ha): 4 (Herbicidal rate of 70% or more and less than 90%) | O: lambsquarters, herbicidal effect [23, 27]: 4 (Herbicidal rate of 70% or more and less than 90%) | N: redroot pigweed, herbicidal effect rating ([24]; AAH 320 g/ha): 4 (Herbicidal rate of 70% or more and less than 90%) | N: redroot pigweed, herbicidal effect [25, 27]: 5 (Herbicidal rate of 90% or more (almost completely withered)) | herbicidal effect on H (barnyard grass), rating 0-5 [26]: 4 (Herbicidal rate of 70% or more and less than 90%)

Cc1nn(C)c(=O)c(-c2c(-c3ccc(C(F)(F)F)cc3)sc3c(F)cccc23)c1O [4-044]
Herbicidal effect by soil treatment, F: southern crabgrass [1, 28]: 0 (Herbicidal rate of 5% or less (almost no effect)) | Herbicidal effect by soil treatment, H: barnyard grass [2, 28]: 0 (Herbicidal rate of 5% or less (almost no effect)) | Herbicidal effect by soil treatment, M: velvetleaf [3, 28]: 0 (Herbicidal rate of 5% or less (almost no effect)) | herbicidal effect on G: green foxtail (evaluation grade 0-5) [4, 29]: 1 (Herbicidal rate of 5% or more and less than 20%) | herbicidal effect on L: windgrass (evaluation grade 0-5) [5, 29]: 5 (Herbicidal rate of 90% or more (almost completely withered)) | herbicidal effect on Chinese sprangletop (D) [6]: 5 (Herbicidal rate of 90% or more (almost completely withered)) | Herbicidal effect by soil treatment, K: Italian ryegrass [7, 28]: 0 (Herbicidal rate of 5% or less (almost no effect)) | herbicidal effect on F: southern crabgrass (evaluation grade 0-5) [8, 29]: 0 (Herbicidal rate of 5% or less (almost no effect)) | Herbicidal effect by soil treatment, O: lambsquarters [9, 28]: 0 (Herbicidal rate of 5% or less (almost no effect)) | herbicidal effect on rice flat sedge (E) [10]: 5 (Herbicidal rate of 90% or more (almost completely withered)) | Herbicidal effect by soil treatment, G: green foxtail [11, 28]: 0 (Herbicidal rate of 5% or less (almost no effect)) | herbicidal effect on R: persian speedwell (evaluation grade 0-5) [12, 29]: 5 (Herbicidal rate of 90% or more (almost completely withered)) | Herbicidal effect by soil treatment, J: blackgrass [13, 28]: 0 (Herbicidal rate of 5% or less (almost no effect)) | herbicidal effect on J: blackgrass (evaluation grade 0-5) [14, 29]: 0 (Herbicidal rate of 5% or less (almost no effect)) | herbicidal effect on K: Italian ryegrass (evaluation grade 0-5) [15, 29]: 4 (Herbicidal rate of 70% or more and less than 90%) | Herbicidal effect by soil treatment, P: chickweed [16, 28]: 1 (Herbicidal rate of 5% or more and less than 20%) | herbicidal effect on M: velvetleaf (evaluation grade 0-5) [17, 29]: 3 (Herbicidal rate of 40% or more and less than 70%) | Herbicidal effect by soil treatment, I: wild oat [18, 28]: 0 (Herbicidal rate of 5% or less (almost no effect)) | herbicidal effect on P: chickweed (evaluation grade 0-5) [19, 29]: 5 (Herbicidal rate of 90% or more (almost completely withered)) | herbicidal effect on H: barnyard grass (evaluation grade 0-5) [20, 29]: 2 (Herbicidal rate of 20% or more and less than 40%) | herbicidal effect on I: wild oat (evaluation grade 0-5) [21, 29]: 0 (Herbicidal rate of 5% or less (almost no effect)) | Herbicidal effect by soil treatment, R: persian speedwell [22, 28]: 3 (Herbicidal rate of 40% or more and less than 70%) | herbicidal effect on O: lambsquarters (evaluation grade 0-5) [23, 29]: 3 (Herbicidal rate of 40% or more and less than 70%) | Herbicidal effect by soil treatment, N: redroot pigweed [24, 28]: 0 (Herbicidal rate of 5% or less (almost no effect)) | herbicidal effect on N: redroot pigweed (evaluation grade 0-5) [25, 29]: 4 (Herbicidal rate of 70% or more and less than 90%) | herbicidal effect on barnyard grass (H) [26]: 5 (Herbicidal rate of 90% or more (almost completely withered))
